This note sets out measurements from patent US20050038048A1, “Use of 7h-pyrrollo{2,3-d}pyrimidine derivatives in the treatment of solid tumor diseases” (priority 2001, published 2005).

For one data set, the system named is NSCLC. Kind of data set: Treatment of a human patient suffering from NSCLC with PKI166. The class given is in vivo. Conditions: 8 weeks, 450 mg/day except on day 2, 16 and 30, partial response = greater than or equal to 50% reduction in measurable or evaluable disease without progression. As for the experimental part: A human patient suffering from NSCLC is treated for a period of 8 weeks with 450 mg/day of PKI166 except on day 2, 16 and 30 on which days no drug is applied.
Consider `C[C@@H](Nc1ncnc2[nH]c(-c3ccc(O)cc3)cc12)c1ccccc1` [PKI166, (R)-6-(4-hydroxy-phenyl)-4-[(1-phenyl-ethyl)-amino]-7H-pyrrolo[2,3-d]pyrimidine], for which the “disease response observed after treatment” value is on record as “partial response”.

Test system in the next data set: not given
Assay: not given
Conditions: not given
The melting point is the temperature, or range, at which the solid turns liquid. Take `C[C@@H](Nc1ncnc2[nH]c(-c3ccc(CN4CCN(C)CC4)cc3)cc12)c1ccccc1` [Example 1, {6-[4-(4-Methyl-piperazin-1-ylmethyl)-phenyl]-7H-pyrrolo[2,3-d]pyrimidin-4-yl}-((R)-1-phenyl-ethyl)-amine]: the melting point lay in the range of 248 to 250 °C. As for `CCN(CC)Cc1ccc(-c2cc3c(N[C@H](C)c4ccccc4)ncnc3[nH]2)cc1` [Example 2, [6-(4-Diethylaminomethyl-phenyl)-7H-pyrrolo[2,3-d]pyrimidin-4-yl]-((R)-1-phenyl-ethyl)-amine], the melting point lay in the range of 246 to 248 °C. Same read-out and setting: with `C[C@@H](Nc1ncnc2[nH]c(-c3ccc(CN4CCCC4)cc3)cc12)c1ccccc1` [Example 4, ((R)-1-Phenyl-ethyl)-[6-(4-pyrrolidin-1-ylmethyl-phenyl)-7H-pyrrolo[2,3-d]pyrimidin-4-yl]-amine] the figure was 254 to 256 °C; with `C[C@@H](Nc1ncnc2[nH]c(-c3ccc(CN(C)C)cc3)cc12)c1ccccc1` [Example 5, [6-(4-Dimethylaminomethyl-phenyl)-7H-pyrrolo[2,3-d]pyrimidin-4-yl]-((R)-1-phenyl-ethyl)-amine], 241 to 243 °C.

`C[C@@H](Nc1ncnc2[nH]c(-c3ccc(CN4CCCCC4)cc3)cc12)c1ccccc1` [Example 6, ((R)-1-Phenyl-ethyl)-[6-(4-piperidin-1-ylmethyl-phenyl)-7H-pyrrolo[2,3-d]pyrimidin-4-yl]-amine] showed a melting point of 246 to 248 °C. The same measure, in the same setting: next, `C[C@@H](Nc1ncnc2[nH]c(-c3ccc(CN4CCOCC4)cc3)cc12)c1ccccc1` [Example 7, [6-(4-Morpholin-4-ylmethyl-phenyl)-7H-pyrrolo[2,3-d]pyrimidin-4-yl]-((R)-1-phenyl-ethyl)-amine]: 263 to 265 °C. Same read-out and setting: next, `CC1CN(Cc2ccc(-c3cc4c(N[C@H](C)c5ccccc5)ncnc4[nH]3)cc2)CC(C)N1` (stereo partly drawn) [Example 8, {6-[4-(3,5-Dimethyl-piperazin-1-ylmethyl)-phenyl]-7H-pyrrolo[2,3-d]pyrimidin-4-yl}-((R)-1-phenyl-ethyl)-amine]: 208 to 210 °C; `C[C@@H](Nc1ncnc2[nH]c(-c3ccc(CNCCN4CCOCC4)cc3)cc12)c1ccccc1` [Example 9, (6-{4-[(2-Morpholin-4-yl-ethylamino)-methyl]-phenyl}-7H-pyrrolo[2,3-d]pyrimidin-4-yl)-((R)-1-phenyl-ethyl)-amine]: 222 to 224 °C; `C[C@@H](Nc1ncnc2[nH]c(-c3ccc(CNC4CCOCC4)cc3)cc12)c1ccccc1` [Example 10, ((R)-1-Phenyl-ethyl)-(6-{4-[(tetrahydro-pyran-4-ylamino)-methyl]-phenyl}-7H-pyrrolo[2,3-d]pyrimidin-4-yl)-amine]: 253 to 255 °C.

The subject of the next data set is renal cell cancer. Put plainly: Treatment of a human patient suffering from renal cell cancer with PKI166. Conditions: 16 weeks in 4 cycles of 600 mg daily for two weeks followed by 2 weeks without drug, stable disease = less than 50% decrease or less than 25% increase in measurable or evaluable disease. The class given is in vivo. As for the experimental part: A human patient suffering from renal cell cancer is treated for a period of 16 weeks in 4 cycles consisting of administration of 600 mg of PKI166 daily for two weeks followed by 2 weeks without administering the drug. […] A human patient suffering from renal cell cancer is treated for a period of 16 weeks with 400 mg of PKI166 on Monday, Wednesday and Friday of each week.
Turning to `C[C@@H](Nc1ncnc2[nH]c(-c3ccc(O)cc3)cc12)c1ccccc1` [PKI166, (R)-6-(4-hydroxy-phenyl)-4-[(1-phenyl-ethyl)-amino]-7H-pyrrolo[2,3-d]pyrimidine], the “disease response observed during treatment” value was “stable disease”.

Still in this data set, the particulars now being: 16 weeks, 400 mg on Monday, Wednesday and Friday of each week, stable disease = less than 50% decrease or less than 25% increase in measurable or evaluable disease.
Consider `C[C@@H](Nc1ncnc2[nH]c(-c3ccc(O)cc3)cc12)c1ccccc1` [PKI166, (R)-6-(4-hydroxy-phenyl)-4-[(1-phenyl-ethyl)-amino]-7H-pyrrolo[2,3-d]pyrimidine], for which the “disease response observed during treatment” value was “stable disease”.
